Measured values reported in the supplement of paper PMC11208160.

Assay: recombinant barcode read abundance after kanamycin selection (control-corrected) (log10(CPM+1)); higher = more efficient recombination; sequences stand for … in AGTGCAGAGAAAATCGGCCAGTTTTCTCTGCCTGCAGTCCGCATGCCGT…AGATTTATGCAGCGGACTGCCTTTCTCCCAAAGTGATAAACCGGACAGTATCATGGACCGGTTTTCCCGGTAATCCGTATTTGCAAGGTTGGTTTCACT; site = the 11-nt target
Outline: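 Targets and IS621 bridge RNA target-binding loops were paired in oligos, each with a promoter, a barcode and the J23119-driven first 104 bridge RNA bases. A vector carrying the remaining 73 bp and a T7-inducible recombinase received these by Gibson cloning, and the pool was co-electroporated into E. coli with a donor plasmid. Duplicate plates contained chloramphenicol/ampicillin LB agar (control) or chloramphenicol/ampicillin/kanamycin with 0.1 mM IPTG. Recombination efficiency comes from averaged, control-corrected counts per million of recombinant-junction barcodes, reported as log10(CPM+1).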
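Further: IS621 recombinase and bridge RNA in Escherichia coli cells.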

Sequence	recombinant barcode read abundance (log10)
CGCTCGACTTGGGTTCTAACCTGTTGCCT (site CGCTCGACTAG)	0.0944
CGCTCGACTTGGGTTCTAACCTGTTGCCT (site CGCTGGACTAG)	0.188
CGCTCGACTTGGGTTCTAACCTGTTGCCT (site CGCTTGACTAG)	0.0207
CGCTGGCCTTGGGTTCTAACCTGTTGCTT (site CGCTGACCTAA)	0.033
CGCTGGCCTTGGGTTCTAACCTGTTGCTT (site CGCTGCCCTAA)	0.112
CGCTGGCCTTGGGTTCTAACCTGTTGCTT (site CGCTGGCCTAA)	0.162
CGCTGGCCTTGGGTTCTAACCTGTTGCTT (site CGCTGTCCTAA)	0.0658
CGCTTGACTTGGGTTCTAACCTGTTGCCT (site CGCTAGACTAG)	0.0413
CGCTTGACTTGGGTTCTAACCTGTTGCCT (site CGCTCGACTAG)	0.164
CGCTTGACTTGGGTTCTAACCTGTTGCCT (site CGCTGGACTAG)	0.131
CGCTTGACTTGGGTTCTAACCTGTTGCCT (site CGCTTGACTAG)	0.00854
CGCTTTACTTGGGTTCTAACCTGTTGCCG (site CGCTTTACTCG)	0.104
CGCTTTACTTGGGTTCTAACCTGTTGCCG (site TAGACATCTAC)	0.0706
CGGAAATCTTGGGTTCTAACCTGTTGCCT (site CGAAAATCTAG)	0.171
CGGAAATCTTGGGTTCTAACCTGTTGCCT (site CGCAAATCTAG)	0.0224
CGGAAATCTTGGGTTCTAACCTGTTGCCT (site CGGAAATCTAG)	0.127
CGGAAATCTTGGGTTCTAACCTGTTGCCT (site CGTAAATCTAG)	0.0515
CGGAACACTTGGGTTCTAACCTGTTGCGG (site CGGAACACTCC)	2.84
CGGAACACTTGGGTTCTAACCTGTTGCGG (site CGGCACACTCC)	0.755
CGGAACACTTGGGTTCTAACCTGTTGCGG (site CGGGACACTCC)	0.908
CGGAACACTTGGGTTCTAACCTGTTGCGG (site CGGTACACTCC)	1.08
CGGAATGCTTGGGTTCTAACCTGTTGCCT (site CGAAATGCTAG)	0.198

Sequence	recombinant barcode read abundance (log10)
CGGAATGCTTGGGTTCTAACCTGTTGCCT (site CGCAATGCTAG)	0.0762
CGGAATGCTTGGGTTCTAACCTGTTGCCT (site CGGAATGCTAG)	1.38
CGGAATGCTTGGGTTCTAACCTGTTGCCT (site CGTAATGCTAG)	0.0616
CGGACGACTTGGGTTCTAACCTGTTGCCT (site CGGACGACTAG)	0.963
CGGACGACTTGGGTTCTAACCTGTTGCCT (site CGGACGCCTAG)	0.0677
CGGACGACTTGGGTTCTAACCTGTTGCCT (site CGGACGGCTAG)	0.0816
CGGACGACTTGGGTTCTAACCTGTTGCCT (site CGGACGTCTAG)	0.111
CGGAGCCCTTGGGTTCTAACCTGTTGCGG (site AGGAGCCCTTC)	0.0728
CGGAGCCCTTGGGTTCTAACCTGTTGCGG (site CGGAGCCCTCC)	1.82
CGGATCGCTTGGGTTCTAACCTGTTGCCT (site CGGATAGCTAG)	0.079
CGGATCGCTTGGGTTCTAACCTGTTGCCT (site CGGATCGCTAG)	1.76
CGGATCGCTTGGGTTCTAACCTGTTGCCT (site CGGATGGCTAG)	0.153
CGGATCGCTTGGGTTCTAACCTGTTGCCT (site CGGATTGCTAG)	0.271
CGGCATACTTGGGTTCTAACCTGTTGCCT (site CAGCATACTAG)	0.0864
CGGCATACTTGGGTTCTAACCTGTTGCCT (site CCGCATACTAG)	0.0245
CGGCATACTTGGGTTCTAACCTGTTGCCT (site CGGCATACTAG)	0.66
CGGCATACTTGGGTTCTAACCTGTTGCCT (site CTGCATACTAG)	0
CGGCCACCTTGGGTTCTAACCTGTTGCCT (site CGGCCACCTAG)	2.02
CGGCCACCTTGGGTTCTAACCTGTTGCCT (site TGGCCACCTAG)	0.0718
CGGCCTACTTGGGTTCTAACCTGTTGCTT (site CGGCCTACTAA)	0.659
CGGCCTACTTGGGTTCTAACCTGTTGCTT (site CGGCTTCCTAA)	0.137
CGGCGTCCTTGGGTTCTAACCTGTTGCCG (site CGGCGTCCTAG)	0.498

Sequence	recombinant barcode read abundance (log10)
CGGCGTCCTTGGGTTCTAACCTGTTGCCG (site CGGCGTCCTCG)	0.197
CGGCTGTCTTGGGTTCTAACCTGTTGCCT (site CGGCTGTCTAG)	1.28
CGGCTGTCTTGGGTTCTAACCTGTTGCCT (site GTAGGAACTCA)	0.0275
CGGCTTCCTTGGGTTCTAACCTGTTGCTT (site CGGCCTACTAA)	0.209
CGGCTTCCTTGGGTTCTAACCTGTTGCTT (site CGGCTTCCTAA)	0.104
CGGGCCTCTTGGGTTCTAACCTGTTGCAC (site CGGGCCTCTGT)	3.19
CGGGCCTCTTGGGTTCTAACCTGTTGCAC (site CGGTCCTCTGC)	0.209
CGGGCCTCTTGGGTTCTAACCTGTTGCTC (site CGGGCCTCTAA)	0.752
CGGGCCTCTTGGGTTCTAACCTGTTGCTC (site CGGGCCTCTCA)	0.0404
CGGGCCTCTTGGGTTCTAACCTGTTGCTC (site CGGGCCTCTGA)	1.23
CGGGCCTCTTGGGTTCTAACCTGTTGCTC (site CGGGCCTCTTA)	0.0944
CGGTACCCTTGGGTTCTAACCTGTTGCGG (site CAGCACCCTCC)	0.64
CGGTACCCTTGGGTTCTAACCTGTTGCGG (site CGGTACCCTCC)	3.11
CGGTCCGCTTGGGTTCTAACCTGTTGCCT (site AGATCCGCTAG)	0.103
CGGTCCGCTTGGGTTCTAACCTGTTGCCT (site CGGTCCGCTAG)	1.52
CGGTCGCCTTGGGTTCTAACCTGTTGCAT (site CGGTCGCCTAT)	0.839
CGGTCGCCTTGGGTTCTAACCTGTTGCAT (site CGGTTGCCTAC)	0.153
CGTAAATCTTGGGTTCTAACCTGTTGCCT (site CGAAAATCTAG)	0.0185
CGTAAATCTTGGGTTCTAACCTGTTGCCT (site CGCAAATCTAG)	0.0232
CGTAAATCTTGGGTTCTAACCTGTTGCCT (site CGGAAATCTAG)	0.15
CGTAAATCTTGGGTTCTAACCTGTTGCCT (site CGTAAATCTAG)	0.146
CGTACCTCTTGGGTTCTAACCTGTTGCTA (site CGTACCTCTAA)	0.124
